These are literature values, as cited in PubChem BioAssay AID1259409 (Chemical Carcinogenesis Research Information System (CCRIS), 2018).

This series relates to rodent chemically induced tumor inhibition, incidence and multiplicity. The series can be described thus: CCRIS tumor inhibitor studies. To be noted: for outcome: Strain/Sex: SENCAR/FEMALE, Target Tissue: Type of Lesion: SKIN: TUMOR, Dose [Carcinogen]: 40 NMOL IN 0.2 ML ACETONE ONCE.

As for `CC1(C)[C@@H](O)CC[C@]2(C)[C@H]3C(=O)C=C4[C@@H]5C[C@@](C)(C(=O)O)CC[C@]5(C)CC[C@@]4(C)[C@]3(C)CC[C@@H]12`, the outcome is, setting by setting: (Carcinogen: 7,12-DIMETHYLBENZ[A]ANTHRACENE, 57-97-6, Dose [Inhibitor]: 0, 10 UMOL IN 0.2 ML DMSO/ACETONE (1:2) 1/D BEGINNING 7 D PRIOR TO CARCINOGEN DOSE (STUDY DURATION: 16 WK), Route [Inhibitor]: DERMAL, Species: MOUSE) 100%, 45%, 55%, not calculated at 9 wk; 100%, 85%, 15%, not calculated at 16 wk; (Carcinogen: 7,12-DIMETHYLBENZ[A]ANTHRACENE, 57-97-6, Dose [Inhibitor]: 0, 30 UMOL IN DMSO/ACETONE (1:2) 30 MIN PRIOR TO EACH PROMOTER DOSE (STUDY DURATION: 16 WK), Route [Inhibitor]: DERMAL, Species: MOUSE) 100%, 40%, 60%, not calculated at 9 wk; 100%, 80%, 20%, not calculated at 16 wk. In addition, the “tumour outcome (control, treated, inhibition, significance)” value reads like this: (Carcinogen: 7,12-DIMETHYLBENZ[A]ANTHRACENE, 57-97-6, Dose [Inhibitor]: 10 UMOL APPLIED 40 MINUTES PRIOR TO PROMOTER DOSE (STUDY DURATION: 20 WK), Route [Inhibitor]: DERMAL, Species: MOUSE, Strain/Sex: ICR/FEMALE, Target Tissue: Type of Lesion: SKIN: PAPILLOMA, Dose [Carcinogen]: 100 UG ONCE) 100%, 40%, 60%, p<0.05; (Carcinogen: AZOXYMETHANE, 25843-45-2, Dose [Inhibitor]: 0, 1200 PPM IN DIET BEGINNING 1 WK PRIOR TO CARCINOGEN TREATMENT FOR DURATION OF STUDY (STUDY DURATION: 54 WK), Route [Inhibitor]: ORAL, Species: RAT, Strain/Sex: F344/MALE, Target Tissue: Type of Lesion: COLON: ADENOCARCINOMA, Dose [Carcinogen]: 15 MG/KG/BW 1/WK FOR 2 WK, Promoter: NONE USED) 58%, 78%, -35%, not calculated; (Carcinogen: AZOXYMETHANE, 25843-45-2, Dose [Inhibitor]: 0, 1200 PPM IN DIET BEGINNING 1 WK PRIOR TO CARCINOGEN TREATMENT FOR DURATION OF STUDY (STUDY DURATION: 54 WK), Route [Inhibitor]: ORAL, Species: RAT, Strain/Sex: F344/MALE, Target Tissue: Type of Lesion: COLON: ADENOMA, Dose [Carcinogen]: 15 MG/KG/BW 1/WK FOR 2 WK, Promoter: NONE USED) 6%, 6%, 0%, not calculated; (Carcinogen: AZOXYMETHANE, 25843-45-2, Dose [Inhibitor]: 0, 2400 PPM IN DIET BEGINNING 1 WK PRIOR TO CARCINOGEN TREATMENT FOR DURATION OF STUDY (STUDY DURATION: 54 WK), Route [Inhibitor]: ORAL, Species: RAT, Strain/Sex: F344/MALE, Target Tissue: Type of Lesion: COLON: ADENOMA, Dose [Carcinogen]: 15 MG/KG/BW 1/WK FOR 2 WK, Promoter: NONE USED) 6%, 6%, 0%, not significant; (Carcinogen: AZOXYMETHANE, 25843-45-2, Dose [Inhibitor]: 0, 2400 PPM IN DIET BEGINNING 1 WK PRIOR TO CARCINOGEN TREATMENT OF DURATION OF STUDY (STUDY DURATION: 54 WK), Route [Inhibitor]: ORAL, Species: RAT, Strain/Sex: F344/MALE, Target Tissue: Type of Lesion: COLON: ADENOCARCINOMA, Dose [Carcinogen]: 15 MG/KG/BW 1/WK FOR 2 WK, Promoter: NONE USED) 58%, 53%, 9%, not calculated.

Turning to `CC(C)C(=O)Nc1ccc([N+](=O)[O-])c(C(F)(F)F)c1`, the “tumour outcome (control, treated, inhibition, significance)” value reads like this: (Carcinogen: DIETHYLNITROSAMINE, 55-18-5, Dose [Inhibitor]: 0, 0.5 MG/G IN DIET FOR 3 WK BEGINNING AT 25 WK OF AGE (STUDY DURATION: 52 WK), Route [Inhibitor]: ORAL, Species: MOUSE, Strain/Sex: B6C3F1/MALE, Target Tissue: Type of Lesion: LIVER: TUMOR, Dose [Carcinogen]: 0.2 MICROMOLAR/G BW ONCE AT 6 WK OF AGE, Promoter: NONE USED) 81%, 50%, 38%, p<0.05; (Carcinogen: DIETHYLNITROSAMINE, 55-18-5, Dose [Inhibitor]: 0, 0.5 MG/G IN DIET FOR 3 WK POST CARCINOGEN DOSE (STUDY DURATION: 52 WK), Route [Inhibitor]: ORAL, Species: MOUSE, Strain/Sex: B6C3F1/MALE, Target Tissue: Type of Lesion: LIVER: TUMOR, Dose [Carcinogen]: 0.2 MICROMOLAR/G BW ONCE AT 6 WK OF AGE, Promoter: NONE USED) 81%, 63%, 22%, not significant; (Carcinogen: DIETHYLNITROSAMINE, 55-18-5, Dose [Inhibitor]: 0, 0.5 MG/G IN DIET FOR 27 WK BEGINNING AT 25 WK OF AGE (STUDY DURATION: 52 WK), Route [Inhibitor]: ORAL, Species: MOUSE, Strain/Sex: B6C3F1/MALE, Target Tissue: Type of Lesion: LIVER: TUMOR, Dose [Carcinogen]: 0.2 MICROMOLAR/G BW ONCE, Promoter: NONE USED) 81%, 53%, 35%, p<0.05; (Carcinogen: DIETHYLNITROSAMINE, 55-18-5, Dose [Inhibitor]: 0, 0.5 MG/G IN DIET FOR DURATION OF STUDY (STUDY DURATION: 52 WK), Route [Inhibitor]: ORAL, Species: MOUSE, Strain/Sex: B6C3F1/MALE, Target Tissue: Type of Lesion: LIVER: TUMOR, Dose [Carcinogen]: 0.2 MICROMOLAR/G BW ONCE AT 6 WK OF AGE, Promoter: NONE USED) 81%, 97%, -20%, p<0.05; (Carcinogen: N-BUTYL-N-(4-HYDROXYBUTYL)NITROSAMINE, 3817-11-6, Dose [Inhibitor]: 0, 50 MG/KG 2/WK FOR 11 WK BEGINNING POST CARCINOGEN TREATMENT (STUDY DURATION:21WK), Route [Inhibitor]: ORAL, Species: RAT, Strain/Sex: WISTAR/MALE, Target Tissue: Type of Lesion: URINARY BLADDER: CARCINOMA, Dose [Carcinogen]: 0.05% IN DRINKING WATER FOR 10 WK, Promoter: NONE USED) 15/17 (88%), 12/16, 75%, 15%, not significant; (Carcinogen: N-BUTYL-N-(4-HYDROXYBUTYL)NITROSAMINE, 3817-11-6, Dose [Inhibitor]: 0, 50 MG/KG 2/WK FOR 13 WK BEGINNING POST CARCINOGEN TREATMENT (STUDY DURATION: 20 WK), Route [Inhibitor]: ORAL, Species: RAT, Strain/Sex: WISTAR/MALE, Target Tissue: Type of Lesion: URINARY BLADDER: CARCINOMA, Dose [Carcinogen]: 0.05% IN DRINKING WATER FOR 7 WK, Promoter: NONE USED) 25/39 (64%), 10/21 (48%), 25%, not significant. Besides, the “tumour outcome (control, treated, inhibition, significance)” value by setting is: (Carcinogen: N-BUTYL-N-(4-HYDROXYBUTYL)NITROSAMINE, 3817-11-6, Dose [Inhibitor]: 0, 200 MG/KG 2/WK FOR 13 WK BEGINNING POST CARCINOGEN TREATMENT (STUDY DURATION:20 WK), Route [Inhibitor]: ORAL, Species: RAT, Strain/Sex: WISTAR/MALE, Target Tissue: Type of Lesion: URINARY BLADDER: CARCINOMA, Dose [Carcinogen]: 0.05% IN DRINKING WATER FOR 7 WK, Promoter: NONE USED) 25/39 (64%), 5/17 (29%), 55%, p<0.05; (Carcinogen: N-NUTYL-N-(4-HYDROXYBUTYL)NITROSAMINE, 3817-11-6, Dose [Inhibitor]: 0, 100 MG/KG 2/WK FOR 13 WK BEGINNING POIST CARCINOGEN TREATMENT (STUDY DURATION: 20 WK), Route [Inhibitor]: ORAL, Species: RAT, Strain/Sex: WISTAR/MALE, Target Tissue: Type of Lesion: URINARY BLADDER: CARCINOMA, Dose [Carcinogen]: 0.05% IN DRINKING WATER FOR 7 WK, Promoter: NONE USED) 25/39 (64%), 7/17 (41%), 36%, not significant.
